pIC50: −log10 of the molar value.
Target: Gamma-secretase
Experiment: Inhibition of amyloid-beta production in Chinese hamster ovary (CHO) cells expressing human amyloid precursor protein (APP)
Type: functional, cell-based

Compound: COC(=O)[C@H](Cc1ccccc1)NC(=O)[C@H](CC(C)C)NC(=O)N(C)C[C@@H](O)[C@H](Cc1ccccc1)NC(=O)OC(C)(C)C
- pIC50: 5.51

Compound: COC(=O)[C@H](CC(C)C)NC(=O)[C@@H](NC(=O)[C@H](CC(C)C)NC(=O)N(Cc1ccccc1)C[C@@H](O)[C@H](Cc1ccccc1)NC(=O)OC(C)(C)C)C(C)C
- pIC50: 6.27

Compound: COC(=O)[C@H](CC(C)C)NC(=O)N(Cc1ccccc1)C[C@@H](O)[C@H](Cc1ccccc1)NC(=O)OC(C)(C)C
- pIC50: 5.10

Compound: COC(=O)[C@@H](NC(=O)[C@H](CC(C)C)NC(=O)N(Cc1ccccc1)C[C@@H](O)[C@H](Cc1ccccc1)NC(=O)[C@H](CC(C)C)NC(=O)OC(C)(C)C)C(C)C
- pIC50: 6.64

Compound: COC(=O)[C@H](CC(C)C)NC(=O)[C@H](CC(C)C)NC(=O)N(Cc1ccccc1)C[C@@H](O)[C@H](Cc1ccccc1)NC(=O)OC(C)(C)C
- pIC50: 6.19

Compound: COC(=O)[C@H](Cc1ccccc1)NC(=O)[C@@H](NC(=O)[C@H](CC(C)C)NC(=O)N(Cc1ccccc1)C[C@@H](O)[C@H](Cc1ccccc1)NC(=O)OC(C)(C)C)C(C)C
- pIC50: 6.60

Compound: COC(=O)[C@@H](NC(=O)[C@@H](NC(=O)[C@H](CC(C)C)NC(=O)N(Cc1ccccc1)C[C@@H](O)[C@H](Cc1ccccc1)NC(=O)OC(C)(C)C)C(C)C)C(C)C
- pIC50: 6.28

Compound: CC[C@H](C)[C@H](NC(=O)[C@@H](NC(=O)[C@H](CC(C)C)NC(=O)N(Cc1ccccc1)C[C@@H](O)[C@H](Cc1ccccc1)NC(=O)OC(C)(C)C)C(C)C)C(=O)OC
- pIC50: 6.57

Compound: COC(=O)[C@H](Cc1ccccc1)NC(=O)[C@H](CC(C)C)NC(=O)N(CC(C)C)C[C@@H](O)[C@H](Cc1ccccc1)NC(=O)OC(C)(C)C
- pIC50: 6.40

Compound: COC(=O)[C@H](C)NC(=O)[C@@H](NC(=O)[C@H](CC(C)C)NC(=O)N(Cc1ccccc1)C[C@@H](O)[C@H](Cc1ccccc1)NC(=O)OC(C)(C)C)C(C)C
- pIC50: 6.17

Compound: COC(=O)[C@H](Cc1ccccc1)NC(=O)[C@H](CC(C)C)NC(=O)N(C[C@@H](O)[C@H](Cc1ccccc1)NC(=O)OC(C)(C)C)C(C)C
- pIC50: 4.66

Compound: COC(=O)[C@@H](NC(=O)[C@H](CC(C)C)NC(=O)N(Cc1ccccc1)C[C@@H](O)[C@H](Cc1ccccc1)NC(=O)[C@H](C)NC(=O)OC(C)(C)C)C(C)C
- pIC50: 6.82

Compound: COC(=O)[C@@H](NC(=O)[C@H](CC(C)C)NC(=O)N(Cc1ccccc1)C[C@@H](O)[C@H](Cc1ccccc1)NC(=O)[C@H](Cc1ccccc1)NC(=O)OC(C)(C)C)C(C)C
- pIC50: 6.30

Compound: COC(=O)[C@H](Cc1ccccc1)NC(=O)[C@@H](NC(=O)N(Cc1ccccc1)C[C@@H](O)[C@H](Cc1ccccc1)NC(=O)OC(C)(C)C)C(C)C
- pIC50: 6.40

Compound: COC(=O)[C@@H](NC(=O)[C@H](CC(C)C)NC(=O)N(Cc1ccccc1)C[C@@H](O)[C@H](Cc1ccccc1)NC(=O)[C@@H](NC(=O)OC(C)(C)C)C(C)C)C(C)C
- pIC50: 7.15

Compound: COC(=O)[C@H](Cc1ccccc1)NC(=O)[C@H](Cc1ccccc1)NC(=O)N(Cc1ccccc1)C[C@@H](O)[C@H](Cc1ccccc1)NC(=O)OC(C)(C)C
- pIC50: 4.74

Compound: COC(=O)[C@H](Cc1ccccc1)NC(=O)[C@H](C)NC(=O)N(Cc1ccccc1)C[C@@H](O)[C@H](Cc1ccccc1)NC(=O)OC(C)(C)C
- pIC50: 6.85

Compound: COC(=O)[C@@H](NC(=O)[C@H](CC(C)C)NC(=O)N(Cc1ccccc1)C[C@@H](O)[C@H](Cc1ccccc1)NC(=O)OC(C)(C)C)C(C)C
- pIC50: 6.66

Compound: COC(=O)[C@H](C)NC(=O)[C@H](CC(C)C)NC(=O)N(Cc1ccccc1)C[C@@H](O)[C@H](Cc1ccccc1)NC(=O)OC(C)(C)C
- pIC50: 4.70

Compound: COC(=O)[C@H](Cc1ccccc1)NC(=O)[C@H](CC(C)C)NC(=O)N(Cc1ccccc1)C[C@@H](O)[C@H](Cc1ccccc1)NC(=O)OC(C)(C)C (stereo in doubt; 2)
- pIC50: 6.41

Compound: COC(=O)[C@H](Cc1ccccc1)NC(=O)[C@H](CC(C)C)NC(=O)N(Cc1ccccc1)C[C@@H](O)[C@H](Cc1ccccc1)NC(=O)OC(C)(C)C (stereo in doubt; 9)
- pIC50: 6.40

Compound: COC(=O)[C@H](Cc1ccccc1)NC(=O)[C@H](CC(C)C)NC(=O)N(Cc1ccccc1)C[C@@H](O)[C@H](Cc1ccccc1)NC(=O)OC(C)(C)C (stereo in doubt; 12)
- pIC50: 6.41

Source: ChEMBL document CHEMBL1137957, “Probing pockets S2-S4' of the gamma-secretase active site with (hydroxyethyl)urea peptidomimetics” (Bioorg Med Chem Lett, 2004)
